Measured values published in publication PMC8000448, “Inhibitory Effects of Schisandra Lignans on Cytochrome P450s and Uridine 5′-Diphospho-Glucuronosyl Transferases in Human Liver Microsomes” (Pharmaceutics, 2021).
Like-named read-outs stand apart in the source and are kept apart here.

Tests used:
[1] = target: CYP2C9 (Homo sapiens, UniProt P11712); assay: CYP2C9 inhibition in HLMs (diclofenac)
Protocol: (§2) Lignans were first dissolved in methanol. The final organic solvent concentration in the incubation media was ≤1.0% (v/v). The microsomal incubation was conducted using two cocktail sets containing non-interactive substrates: set A containing phenacetin, bupropion, amodiaquine, diclofenac, S-mephenytoin, and dextromethorphan as substrates for CYP1A2, CYP2B6, CYP2C8, CYP2C9, CYP2C19, and CYP2D6, respectively; and set B containing coumarin and chlorzoxazone as substrates for CYP2A6 and CYP2E1, and midazolam, nifedipine, and testosterone as substrates for CYP3A4 (Table 1). These substrates are known to be selective for each P450 isoforms. Incubation mixtures containing potassium phosphate buffer (0.1 M, pH 7.4), pooled HLMs (0.25 mg/mL), P450 probe substrate cocktails, and lignan (0~50 μM) were pre-incubated at 37 °C (5 min). Following pre-incubation, an NADPH generating system (1.3 mM NADP^+, 3.3 mM G6P, 1 unit/mL G6PDH, and 3.3 mM MgCl2) was added to initiate the reaction, and further incubated for 10 min. The reaction was quenched with 50 μL of cold acetonitrile containing internal standard (IS; 7 nM trimipramine). After centrifugation at 14,000 rpm (5 min at 4 °C), aliquots of supernatants were filtered through a 0.2 μm membrane filter and were measured by liquid chromatography-tandem mass spectrometry (LC-MS/MS). All microsomal incubations were performed in triplicate.

[2] = target: T1, UGT1A9 (Homo sapiens, UniProt O60656); assay: UGT1A9 inhibition in HLMs (mycophenolic acid); type: in vitro ADME; conditions: average in triplicate, read-out: IC50, UGT 1A9
T1 construct: pooled HLMs (0.25 mg/mL); tissue XenoTech H2630; host or cells: pooled human liver microsomes, mixed gender
T1 sequence (O60656 26-530): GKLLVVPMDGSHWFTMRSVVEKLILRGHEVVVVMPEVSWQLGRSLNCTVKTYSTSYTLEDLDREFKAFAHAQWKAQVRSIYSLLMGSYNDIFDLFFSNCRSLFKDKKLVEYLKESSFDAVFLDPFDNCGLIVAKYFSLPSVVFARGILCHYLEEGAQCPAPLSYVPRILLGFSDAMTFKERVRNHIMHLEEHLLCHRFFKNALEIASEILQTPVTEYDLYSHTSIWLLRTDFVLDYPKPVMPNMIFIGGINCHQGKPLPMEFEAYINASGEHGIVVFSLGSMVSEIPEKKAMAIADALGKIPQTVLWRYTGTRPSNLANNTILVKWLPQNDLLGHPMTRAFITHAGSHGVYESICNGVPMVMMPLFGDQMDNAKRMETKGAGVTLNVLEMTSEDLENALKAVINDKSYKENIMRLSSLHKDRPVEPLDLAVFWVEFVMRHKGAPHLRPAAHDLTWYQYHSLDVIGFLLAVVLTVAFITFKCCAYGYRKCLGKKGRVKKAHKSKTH
Protocol: (§1) The inhibitory potential of six lignans on six UGT activities was evaluated using the previously developed cocktail method with slight modifications. […] These substrates are known to be selective for each UGT isoforms.

[3] = target: T2, UGT1A6 (Homo sapiens, UniProt P19224); assay: UGT1A6 inhibition in HLMs (N-acetylserotonin); type: in vitro ADME; conditions: average in triplicate, read-out: IC50, UGT 1A6
T2 construct: pooled HLMs (0.25 mg/mL); tissue XenoTech H2630; host or cells: pooled human liver microsomes, mixed gender
T2 sequence (P19224 27-532): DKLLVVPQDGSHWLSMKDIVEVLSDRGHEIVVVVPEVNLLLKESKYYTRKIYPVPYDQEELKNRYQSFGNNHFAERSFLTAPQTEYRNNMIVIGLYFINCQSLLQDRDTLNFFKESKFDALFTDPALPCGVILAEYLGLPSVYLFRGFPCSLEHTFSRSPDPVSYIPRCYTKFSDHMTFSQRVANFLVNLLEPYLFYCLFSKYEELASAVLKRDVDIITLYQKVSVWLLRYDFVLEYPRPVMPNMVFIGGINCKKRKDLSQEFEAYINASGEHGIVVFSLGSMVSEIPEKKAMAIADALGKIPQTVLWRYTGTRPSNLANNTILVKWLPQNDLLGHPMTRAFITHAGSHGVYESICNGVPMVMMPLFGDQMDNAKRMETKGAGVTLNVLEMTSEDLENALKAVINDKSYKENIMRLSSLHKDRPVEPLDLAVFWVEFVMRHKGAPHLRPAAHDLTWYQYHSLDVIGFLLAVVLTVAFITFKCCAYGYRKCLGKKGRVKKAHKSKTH
Protocol: as §1

[4] = target: T3, UGT1A4 (Homo sapiens, UniProt P22310); assay: UGT1A4 inhibition in HLMs (trifluoperazine); type: in vitro ADME; conditions: average in triplicate, read-out: IC50, UGT 1A4
T3 construct: pooled HLMs (0.25 mg/mL); tissue XenoTech H2630; host or cells: pooled human liver microsomes, mixed gender
T3 sequence (P22310 29-534): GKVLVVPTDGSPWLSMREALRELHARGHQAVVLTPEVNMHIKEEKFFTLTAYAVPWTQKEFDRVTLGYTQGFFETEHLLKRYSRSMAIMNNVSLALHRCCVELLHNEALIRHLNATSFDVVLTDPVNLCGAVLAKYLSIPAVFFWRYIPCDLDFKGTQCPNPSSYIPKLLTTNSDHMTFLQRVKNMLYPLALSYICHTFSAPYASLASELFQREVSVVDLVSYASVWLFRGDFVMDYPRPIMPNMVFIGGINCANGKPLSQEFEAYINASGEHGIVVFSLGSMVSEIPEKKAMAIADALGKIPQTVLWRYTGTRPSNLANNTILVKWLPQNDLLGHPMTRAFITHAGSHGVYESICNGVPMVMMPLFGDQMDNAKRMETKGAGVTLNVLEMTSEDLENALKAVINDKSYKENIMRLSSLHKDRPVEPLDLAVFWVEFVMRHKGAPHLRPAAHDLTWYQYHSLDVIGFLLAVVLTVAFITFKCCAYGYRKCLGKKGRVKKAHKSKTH
Protocol: as §1

[5] = target: CYP3A (Homo sapiens, UniProt P08684); assay: CYP3A inhibition in HLMs (midazolam, nifedipine, testosterone); conditions: pooled human liver microsomes; for IC50 at 10 min: HLMs;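 as to all read-outs here: pooled HLMs at 0.25 mg/mL in phosphate buffer, inhibitor across 0–50 µM, 10 min reaction at 37 °C after preincubation, probe metabolite quantified by LC-MS/MS, triplicate incubations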
Protocol: as §2

[6] = target: T4, CYP2E1 (Homo sapiens, UniProt P05181); assay: CYP2E1 inhibition in HLMs (chlorzoxazone); type: in vitro ADME
T4 construct: pooled HLMs (0.25 mg/mL); tissue XenoTech H2630; host or cells: pooled human liver microsomes, mixed gender
Protocol: Lignans were first dissolved in methanol. […] All microsomal incubations were performed in triplicate.

[7] = target: T5, UGT1A3 (Homo sapiens, UniProt P35503); assay: UGT1A3 inhibition in HLMs (chenodeoxycholic acid); type: in vitro ADME; conditions: average in triplicate, read-out: IC50, UGT 1A3
T5 construct: pooled HLMs (0.25 mg/mL); tissue XenoTech H2630; host or cells: pooled human liver microsomes, mixed gender
T5 sequence (P35503 29-534): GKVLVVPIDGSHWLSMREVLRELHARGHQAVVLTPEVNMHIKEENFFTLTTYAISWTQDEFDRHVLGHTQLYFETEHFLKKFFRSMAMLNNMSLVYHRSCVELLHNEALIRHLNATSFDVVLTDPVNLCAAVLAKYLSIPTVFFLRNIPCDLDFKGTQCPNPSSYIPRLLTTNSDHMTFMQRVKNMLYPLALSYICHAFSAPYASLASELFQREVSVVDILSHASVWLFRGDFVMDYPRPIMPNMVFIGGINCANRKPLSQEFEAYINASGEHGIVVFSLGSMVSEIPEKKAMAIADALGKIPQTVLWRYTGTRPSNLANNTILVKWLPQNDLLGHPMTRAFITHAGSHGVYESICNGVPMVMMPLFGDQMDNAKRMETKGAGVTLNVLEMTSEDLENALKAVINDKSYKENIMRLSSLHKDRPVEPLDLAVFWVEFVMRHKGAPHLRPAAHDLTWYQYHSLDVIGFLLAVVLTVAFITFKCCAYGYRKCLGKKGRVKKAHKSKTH
Protocol: as §1

[8] = target: CYP2C19 (Homo sapiens, UniProt P33261); assay: CYP2C19 inhibition in HLMs (S-mephenytoin)
Protocol: as §2

[9] = IC50 TDI, 30 min pre-incubation with NADPH generating system
[10] = pH 7.4, IC50, CYP3A activity (across probe substrates), reversible inhibition, probe substrate not singled out
[11] = pH 7.4, probe midazolam (cocktail set B), IC50 RI, CYP3A (midazolam), midazolam, reversible inhibition
[12] = pH 7.4, probe midazolam (cocktail set B), IC50 TDI, CYP3A (midazolam), midazolam, 30 min pre-incubation with NADPH generating system
[13] = pH 7.4, probe nifedipine (cocktail set B), IC50 RI, CYP3A (nifedipine), nifedipine, reversible inhibition
[14] = pH 7.4, probe nifedipine (cocktail set B), IC50 TDI, CYP3A (nifedipine), nifedipine, 30 min pre-incubation with NADPH generating system
[15] = pH 7.4, probe testosterone (cocktail set B), IC50 RI, CYP3A (testosterone), testosterone, reversible inhibition
[16] = pH 7.4, probe testosterone (cocktail set B), IC50 TDI, CYP3A (testosterone), testosterone, 30 min pre-incubation with NADPH generating system
[17] = 30 min pre-incubation with NADPH generating system, read-out: IC50 TDI, CYP2E1
[18] = reversible inhibition, read-out: IC50 RI, CYP2E1

Chain of CYP3A (P08684 2-503): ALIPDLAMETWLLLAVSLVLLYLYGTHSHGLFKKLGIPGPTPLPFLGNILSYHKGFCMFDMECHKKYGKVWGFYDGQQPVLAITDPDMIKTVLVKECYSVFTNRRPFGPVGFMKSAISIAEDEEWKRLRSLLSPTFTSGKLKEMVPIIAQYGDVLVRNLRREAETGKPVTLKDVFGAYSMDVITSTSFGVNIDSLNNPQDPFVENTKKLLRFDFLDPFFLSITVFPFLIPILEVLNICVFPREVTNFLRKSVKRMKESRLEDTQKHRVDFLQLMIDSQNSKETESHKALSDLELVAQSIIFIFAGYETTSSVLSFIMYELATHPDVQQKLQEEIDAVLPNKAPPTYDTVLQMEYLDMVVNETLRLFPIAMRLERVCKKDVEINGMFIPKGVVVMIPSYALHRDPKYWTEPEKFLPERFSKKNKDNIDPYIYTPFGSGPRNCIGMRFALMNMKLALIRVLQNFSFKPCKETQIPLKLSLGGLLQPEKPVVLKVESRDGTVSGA
T4 sequence (P05181 whole entry): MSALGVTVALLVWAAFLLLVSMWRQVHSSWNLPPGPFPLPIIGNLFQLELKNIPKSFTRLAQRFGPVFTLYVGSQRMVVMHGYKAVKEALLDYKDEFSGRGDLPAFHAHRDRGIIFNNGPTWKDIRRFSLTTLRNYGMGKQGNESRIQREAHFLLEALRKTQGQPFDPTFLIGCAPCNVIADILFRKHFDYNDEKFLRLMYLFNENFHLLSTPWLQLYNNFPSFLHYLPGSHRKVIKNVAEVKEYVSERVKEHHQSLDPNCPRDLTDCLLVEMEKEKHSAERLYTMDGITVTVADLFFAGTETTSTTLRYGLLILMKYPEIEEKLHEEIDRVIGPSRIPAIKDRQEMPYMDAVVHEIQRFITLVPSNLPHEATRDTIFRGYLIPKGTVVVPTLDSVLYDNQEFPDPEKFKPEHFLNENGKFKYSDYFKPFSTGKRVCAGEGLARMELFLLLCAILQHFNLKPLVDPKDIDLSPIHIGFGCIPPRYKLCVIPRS
Chain of CYP2C9 (P11712 whole entry): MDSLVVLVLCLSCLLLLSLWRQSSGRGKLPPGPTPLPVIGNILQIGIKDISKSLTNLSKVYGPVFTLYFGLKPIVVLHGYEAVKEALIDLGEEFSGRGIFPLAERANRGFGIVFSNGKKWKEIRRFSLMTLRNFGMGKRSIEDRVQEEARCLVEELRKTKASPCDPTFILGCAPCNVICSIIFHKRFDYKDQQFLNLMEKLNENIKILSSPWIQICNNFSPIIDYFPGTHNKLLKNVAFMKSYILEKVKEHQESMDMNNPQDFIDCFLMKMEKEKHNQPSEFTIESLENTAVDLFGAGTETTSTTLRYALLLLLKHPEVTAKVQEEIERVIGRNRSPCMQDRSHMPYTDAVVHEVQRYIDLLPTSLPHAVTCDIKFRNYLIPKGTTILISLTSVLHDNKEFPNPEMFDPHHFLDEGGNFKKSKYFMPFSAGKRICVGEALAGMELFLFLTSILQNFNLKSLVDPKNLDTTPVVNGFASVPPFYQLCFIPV
Chain of CYP2C19 (P33261 whole entry): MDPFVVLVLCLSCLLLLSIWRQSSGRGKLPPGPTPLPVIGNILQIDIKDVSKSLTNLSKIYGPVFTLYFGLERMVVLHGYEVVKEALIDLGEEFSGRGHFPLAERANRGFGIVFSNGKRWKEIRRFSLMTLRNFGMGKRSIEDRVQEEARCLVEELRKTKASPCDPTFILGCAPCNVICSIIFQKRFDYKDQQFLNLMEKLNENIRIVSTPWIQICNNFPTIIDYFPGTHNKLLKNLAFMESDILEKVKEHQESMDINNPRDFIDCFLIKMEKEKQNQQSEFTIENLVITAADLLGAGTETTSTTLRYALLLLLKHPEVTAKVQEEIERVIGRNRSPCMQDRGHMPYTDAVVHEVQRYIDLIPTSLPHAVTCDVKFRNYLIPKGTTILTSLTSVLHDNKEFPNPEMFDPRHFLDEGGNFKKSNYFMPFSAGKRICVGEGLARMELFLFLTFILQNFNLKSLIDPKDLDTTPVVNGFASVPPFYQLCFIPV

| SMILES | IC50 ([1]; IC50 RI, reversible inhibition) [µM] | IC50 [1, 9] [µM] | IC50 [2] [µM] | IC50 [3] [µM] | IC50 [4] [µM] | IC50 at 10 min [5, 10] [µM] | IC50 at 10 min [5, 11] [µM] | IC50 at 10 min [5, 12] [µM] | IC50 at 10 min [5, 13] [µM] | IC50 at 10 min [5, 14] [µM] | IC50 at 10 min [5, 15] [µM] | IC50 at 10 min [5, 16] [µM] | IC50 [6, 17] [µM] | IC50 [6, 18] [µM] | IC50 [7] [µM] | IC50 ([8]; IC50 RI, reversible inhibition) [µM] | IC50 [8, 9] [µM] | further results |
| --- | --- | --- | --- | --- | --- | --- | --- | --- | --- | --- | --- | --- | --- | --- | --- | --- | --- | --- |
| COc1cc2c(c(OC)c1OC)-c1c(cc3c(c1OC)OCO3)C[C@H](C)[C@H](C)C2 [Gomisin N, gomisin N] | 36.2 | 10.9 | > 50 | > 50 | > 50 | 1.3 to 4.5 | 4.5 | 1.7 | 1.4 | 0.61 | 1.3 | 0.55 | 23.6 | > 50 | 26.9 | 10.4 | 3.5 | IC50 shift at 10 min ([5]; pH 7.4, probe midazolam (cocktail set B)): 2.7; IC50 shift at 10 min ([5]; pH 7.4, probe nifedipine (cocktail set B)): 2.4; IC50 shift at 10 min ([5]; pH 7.4, probe testosterone (cocktail set B)): 2.4; IC50 shift at 10 min ([6]; human, pooled human liver microsomes, pH 7.4, probe chlorzoxazone (cocktail set B), RI/TDI fold shift): > 2.1 |
| COc1cc2c(c(OC)c1OC)-c1c(cc(OC)c(OC)c1OC)C[C@](C)(O)[C@@H](C)C2 [Schisandrin, schisandrin] | 43 | > 50 | > 50 | > 50 | > 50 | ≤ 16 | 10.5 | 35 | 16 | 43.3 | 5.8 | 20.6 | 36 | 4.2 | > 50 | 5.3 | 46.1 | – |
| COc1c2c(cc3c1-c1c(cc4c(c1OC)OCO4)C[C@H](C)[C@H](C)C3)OCO2 [Wuweizisu C, wuweizisu C] | 8.9 | 3.6 | > 50 | > 50 | > 50 | – | 25.9 | 2.5 | 5.6 | – | 3.6 | – | 25.2 | > 50 | > 50 | 2.7 | 1.5 | – |
| COc1cc2c(c(OC)c1OC)-c1c(cc3c(c1OC)OCO3)C[C@H](C)[C@](C)(O)[C@H]2OC(=O)c1ccccc1 [Gomisin C, gomisin C] | > 50 | > 50 | > 50 | > 50 | > 50 | 0.19 to 0.3 | 0.3 | 0.1 | 0.26 | 0.09 | 0.19 to 0.28 | 0.09 | 24.4 | > 50 | 15 | 16.3 | 20.4 | – |
